The values below come from US7700101B2, “Reagents and method for modulating Dkk-mediated interactions” (Wyeth, priority 2001, dated 2010).

“Also recorded” adds a separate entry of the source.

Test [1] deals with canonical Wnt signaling. As to conditions: Bafico et al.; Dkk-1 added at 30 pM; cited from earlier work.
Test [2] has as its target T1, HBM (Homo sapiens, UniProt O75197, G171V).
T1 construct: Full length Zmax/LRP5 and HBM ORF cDNA; expressed in transfected cells; host or cells: HOB-03-CE6 osteoblastic cells; U2OS osteosarcoma cells; HEK293
Briefly: TCF-luciferase assay in HOB-03-CE6 cells, HBM. The class given is cell-based. As to conditions: Wnt1, FIG. 14. How it is done: HOB-03-CE6 osteoblastic cells developed by Wyeth Ayerst (Philadelphia, Pa.) were seeded into 24-well plates at 150,000 cells per well in 1 ml of the growth media (D-MEM/F12 phenol red-free) containing 10% (v/v) heat-inactivated FBS, 1×penicillin streptomycin, and 1X Glutamax-1, and incubated overnight at 34° C. The following day, the cells were transfected using Lipofectamine 2000® (as described by the manufacturer, Invitrogen) in OptiMEM (Invitrogen) with 0.35 μg/well of LRP5, HBM, or control plasmid DNA (empty vector pcDNA3.1) and either Wnt1 or Wnt3 a plasmid DNA. […] All wells were transfected with 0.025 μg/well of CMV beta-galactosidase plasmid DNA and 0.35 μg/well 16X TCF(ASyluciferase reporter DNA (developed by Ramesh Bhat, Wyeth-Ayerst (Philadelphia, Pa.)). After 4 hours of incubation, the cells were rinsed and 1 ml of fresh growth media was added to each well. The cells were cultured overnight at 34° C., followed by a wash and a change of media. Cells were cultured for an additional 18-24 hours at 37° C. Cells were then lysed with 50 μl/well of 1X lysis buffer. The extracts were assayed for beta-galactosidase activity (Galacto Reaction Buffer Diluent & Light Emission Accelerator, Tropix) using 5 μl extract+50 μl beta-galactosidase diluent and luciferase activity (Luciferase Assay Reagent, Promega) using 20 μl extract.

The test system of test [3] is endogenous LRP5/6. As to the kind of experiment: Cell-based TCF reporter high-throughput assay, endogenous LRP5/6. Conditions: U2OS cells, no Wnt3a/Wnt1 transfection, FIG. 21. Also noted: species or system human. The source says: To develop a high throughput assay, the TCF-luciferase assay described in Example 7 was modified utilizing low level expression of endogenous LRP5/6 in U2OS and HEK293 cells. […] Using U2OS (human osteosarcoma) and HEK293 (ATCC) cells, the TCF-luciferase and tk-Renilla reporter element constructs were co-transfected along with Wnt3a/1 and Dkk.

T1 sequence (O75197 32-1615 G171V): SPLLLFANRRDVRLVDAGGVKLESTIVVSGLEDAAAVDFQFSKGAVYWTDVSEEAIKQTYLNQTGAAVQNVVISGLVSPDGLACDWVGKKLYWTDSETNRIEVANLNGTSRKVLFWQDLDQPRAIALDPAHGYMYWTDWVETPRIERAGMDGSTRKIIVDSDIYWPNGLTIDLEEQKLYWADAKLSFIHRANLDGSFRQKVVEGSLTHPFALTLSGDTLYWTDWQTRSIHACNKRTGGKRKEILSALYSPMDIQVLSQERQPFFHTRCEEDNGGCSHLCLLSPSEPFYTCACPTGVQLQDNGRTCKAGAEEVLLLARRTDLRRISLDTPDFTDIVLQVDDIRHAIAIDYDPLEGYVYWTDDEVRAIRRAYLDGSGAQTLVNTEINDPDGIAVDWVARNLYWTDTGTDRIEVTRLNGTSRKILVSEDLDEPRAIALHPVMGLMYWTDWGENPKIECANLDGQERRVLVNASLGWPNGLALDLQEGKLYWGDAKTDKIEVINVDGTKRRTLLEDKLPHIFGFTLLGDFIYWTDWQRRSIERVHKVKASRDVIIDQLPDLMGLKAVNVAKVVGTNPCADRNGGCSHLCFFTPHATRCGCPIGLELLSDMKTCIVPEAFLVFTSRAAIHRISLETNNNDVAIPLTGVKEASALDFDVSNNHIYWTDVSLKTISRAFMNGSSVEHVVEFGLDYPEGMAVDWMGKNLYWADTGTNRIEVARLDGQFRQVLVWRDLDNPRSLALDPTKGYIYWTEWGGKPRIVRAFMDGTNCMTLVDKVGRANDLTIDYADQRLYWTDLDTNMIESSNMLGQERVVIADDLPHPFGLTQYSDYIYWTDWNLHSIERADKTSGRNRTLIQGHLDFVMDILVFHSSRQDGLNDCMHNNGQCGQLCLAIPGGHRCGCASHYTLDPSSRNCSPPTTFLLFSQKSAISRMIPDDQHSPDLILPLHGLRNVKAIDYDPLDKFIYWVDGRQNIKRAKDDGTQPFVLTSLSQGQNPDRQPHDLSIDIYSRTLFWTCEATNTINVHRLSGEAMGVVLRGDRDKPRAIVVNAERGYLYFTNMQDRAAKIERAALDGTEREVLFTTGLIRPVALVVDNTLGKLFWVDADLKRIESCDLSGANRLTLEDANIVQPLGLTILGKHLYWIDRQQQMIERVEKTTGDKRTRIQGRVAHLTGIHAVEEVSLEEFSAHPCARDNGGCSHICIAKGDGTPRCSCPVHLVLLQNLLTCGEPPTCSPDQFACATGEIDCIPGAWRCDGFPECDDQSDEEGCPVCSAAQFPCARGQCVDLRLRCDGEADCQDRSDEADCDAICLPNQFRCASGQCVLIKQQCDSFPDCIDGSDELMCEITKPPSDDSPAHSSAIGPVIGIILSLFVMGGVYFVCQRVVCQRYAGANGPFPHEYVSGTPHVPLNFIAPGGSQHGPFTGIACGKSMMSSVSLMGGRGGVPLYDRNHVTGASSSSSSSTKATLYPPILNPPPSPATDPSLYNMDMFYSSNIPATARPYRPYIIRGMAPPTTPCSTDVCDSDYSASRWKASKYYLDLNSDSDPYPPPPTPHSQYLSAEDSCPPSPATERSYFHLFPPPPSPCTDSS

Turning to “Dkk-1: Dickkopf-1 protein, antagonist of the Wnt pathway; expressed from human cDNA (RNA or plasmid)”, the “functional consequence of Dkk-1/LRP6 interaction on canonical Wnt signaling” value in test [1] was “repression of the canonical Wnt signaling”. Besides, the “HBM/Wnt1 mediated TCF-luciferase activity” value in test [2] is given as “no effect; also recorded: had no effect on LRP5 or HBM mediated TCF-luciferase activity”. The “modulation of TCF signal without Wnt DNA transfection” value was “can be modulated” in test [3] and “can repress TCF-luci” in test [3] (listed as Dkk1).
